Source: the SangsterLogP compilation

Assay: method code SF-AS, from PMID: 594121
Details: for logD: pH 7.4

Row | logP | logD | Compound
1 | 2.26 |  | Cc1ccccc1NC(=O)CN1CCCCC1
2 |  | 2.93 | O=C(CN1CCCCC1)Nc1cccc(Br)c1
3 | 3.09 |  | O=C(CN1CCCCC1)Nc1ccccc1C(F)(F)F
4 | 2.75 |  | O=C(CN1CCCCC1)Nc1ccccc1[N+](=O)[O-]
5 | 2.71 |  | COc1cccc(NC(=O)CN2CCCCC2)c1
6 | 2.85 |  | COc1ccccc1NC(=O)CN1CCCCC1
7 | 2.76 |  | O=C(CN1CCCCC1)Nc1ccccc1Cl
8 | 2.7 |  | O=C(CN1CCCCC1)Nc1ccc(F)cc1
9 | 3.04 |  | CCOc1ccccc1NC(=O)CN1CCCCC1
10 | 2.97 |  | Cc1cccc(NC(=O)CN2CCCCC2)c1
11 |  | 2.41 | O=C(CN1CCCCC1)Nc1ccccc1
12 | 2.95 |  | Cc1ccc(NC(=O)CN2CCCCC2)cc1
13 |  | 3.21 | O=C(CN1CCCCC1)Nc1ccc(I)cc1
14 |  | 2.82 | CCOc1ccc(NC(=O)CN2CCCCC2)cc1

Continued, compound first:

Row | Compound | logP | logD
15 | O=C(CN1CCCCC1)Nc1cccc(C(F)(F)F)c1 | 3.12 | 
16 | O=C(CN1CCCCC1)Nc1cccc(Cl)c1 | 3.45 | 
17 | O=C(CN1CCCCC1)Nc1ccccc1F | 2.16 | 
18 | O=C(CN1CCCCC1)Nc1cccc(F)c1 | 2.85 | 
19 | O=C(CN1CCCCC1)Nc1ccc(Br)cc1 |  | 2.88
20 | O=C(CN1CCCCC1)Nc1cccc([N+](=O)[O-])c1 | 2.59 | 
21 | O=C(CN1CCCCC1)Nc1ccc(C(F)(F)F)cc1 | 3.06 | 
22 | CCOc1cccc(NC(=O)CN2CCCCC2)c1 | 3.17 | 
23 | O=C(CN1CCCCC1)Nc1ccc([N+](=O)[O-])cc1 |  | 2.25
24 | O=C(CN1CCCCC1)Nc1ccccc1Br | 2.94 | 
25 | O=C(CN1CCCCC1)Nc1cccc(I)c1 |  | 3.23
